Patent publication US20140057961A1, “SIN3B COMPLEX INHIBITION AND USE THEREOF IN THE PREVENTION OF PRO-ONCOGENIC INFLAMMATION AND CANCER” (New York University, priority 2012, published 2014)

Tests used:
Sin3B expression = settings: van Oevelen, et al. (2008) Mol. Cell. 32:359-370; cited from earlier work
[1] = tested on: IL-1α expression in BxPc3 human PDAC cells; assay: Quantitative RT-PCR for IL-1α mRNA expression in BxPc3 pancreatic cancer cells; type: cell-based; settings: BxPc3 cells treated 48 hours with 0.2 μM or 1 μM, relative to DMSO; FIG. 5, p<0.05
Method: Quantitative PCR for Sin3B (*p<0.005) and IL-1α (*p<0.05) mRNA expression in BxPc3 pancreatic cancer cell lines. BxPc3 were infected with an empty vector or a shRNA against Sin3B (shSin3B). ShSin3B mRNA expressions are relative to the empty vector expression.
(§1) Quantitative PCR for IL-1α and IL-6 mRNA expression in BxPc3 pancreatic cancer cell lines. BxPc3 has been treated 48 hours with vehicle DMSO, 0.2 μM (TSA 0.2) or 1 μM (TSA 1) of Trichostatin A. Sin3B and IL-1α mRNA expressions are relative to the expressions in DMSO (*p<0.05).
(§2) BxPc3 human pancreatic cancer cell lines are known in the art and available from American Type Culture Collection (ATCC, Manassas, Va.). Cells were cultured in RPMI, 10% FBS, Sodium Pyruvate, HEPES and Penicillin/[…]. The cultures were maintained in 5% CO2 at 37° C.
DNA sequences encoding shRNAs for Sin3B (shSin3B) were selected and cloned into the PLKO retroviral vector (Open Biosystem). BxPc3 cells were infected with shSin3B or PLKO for 3 days and selected in puromycin for 5 days. The level of Sin3B knockdown by shSin3B was determined by quantitative RT-PCR.
Extraction of total RNA from Pancreas and PDECs was performed using RNEASY mini kit (QIAGEN). […] Quantitative RT-PCR analyses were done using the SYBR Green method and the samples were run on the BIO-RAD I cycler MYIQ. […]

[2] = tested on: IL-6 expression in BxPc3 human PDAC cells; assay: Quantitative RT-PCR for IL-6 mRNA expression in BxPc3 pancreatic cancer cells; type: cell-based; settings: BxPc3 cells treated 48 hours with 0.2 μM or 1 μM, relative to DMSO; FIG. 5
Method: as §1, §2
Extraction of total RNA from Pancreas and PDECs was performed using RNEASY mini kit (QIAGEN). For the pancreas, a piece was snap-frozen, ground, and the frozen powder was added to the RNEASY lysis buffer. Reverse transcription was done using Moloney murine leukemia virus polymerase and oligo(dT) primers. RT-PCR analyses were done using Tag DNA polymerase (5 Prime) and dNTP (Promega). Quantitative RT-PCR analyses were done using the SYBR Green method and the samples were run on the BIO-RAD I cycler MYIQ. Expression levels were normalized to GAPDH. Results were reported as relative to the abundance of mSin3B^+/− or mSin3^B+/− KRas^G12D transcripts. […]

Molecule | Sin3B expression (Sin3B expression) | IL-1α expression after TSA treatment [1] | IL-6 expression after TSA treatment [2]
GCAAAGCGGUCCCUGUUUAUU (listed as RNA, chemistry not given here) [SEQ ID NO:6] | inhibit Sin3B expression | – | –
GGCAAUGGGUCGUGCGAGAUU (chemistry not given here) [SEQ ID NO:7] | inhibit Sin3B expression | – | –
CC(/C=C/C(=O)NO)=C\[C@@H](C)C(=O)c1ccc(N(C)C)cc1 [trichostatin A] | – | specific and dose-dependent down-regulation | not significantly affected
